Data published in patent US9073861B2, “Diphenylmethyl piperazine derivative and pharmaceutical composition using same” (AETAS PHARMA CO., LTD., priority 2011, dated 2015).

Experiments:
normal rats = assay: Hemodynamics before and after intravenous administration in anesthetized normal rats (left ventricular pressure catheter); type: in vivo, Wistar male rats; details: 0.1 mg/kg/min for 10 min i.v.; for maximum +dP/dt after administration as compared to that by the comparative compound [A]: FIG. 7; for maximum −dP/dt after administration as compared to that by the comparative compound [A]: FIG. 8
Description: Wistar male rats were bred for a week and then anesthetized by inhalation of 3% isoflurane. A pressure sensor-tipped catheter (2F Millar) was inserted into the left ventricle from the right common carotid artery, and a polyethylene tube (SP10) for injection of the compounds of the present invention or physiological saline was inserted from the right femoral vein. After stabilizing hemodynamics for 10 minutes, the compound [2] of the present invention was administered from the polyethylene tube at 0.1 mg/kg/min for 10 min, and the cardiac rate, left ventricular pressure, maximum +dP/dt, and maximum −dP/dt were measured for 20 heart beats every minute. In the control group, only physiological saline, which is a solvent, was administered. It is noted that the injection rate of each solution was 16.6 μl per min.
The cardiac rate, maximum left ventricular pressure, maximum +dP/dt and maximum −dP/dt before administration of a drug were considered as 100%, and the values after administration were represented by values (% representation) relative to the values before administration. Using n=3 rats, experiments were carried out. Data are shown as mean and standard deviation. Consequently, cardiac rate before and after administration (the left side in FIG. 1) and changes in the maximum left ventricular pressure (the right side in FIG. 1) are shown in FIG. 1, and changes in the maximum +dP/dt (the left side in FIG. 2) and changes in the maximum −dP/dt (the right side in FIG. 2) are shown in FIG. 2.
(§1) Wistar male rats were bred for a week and then anesthetized by inhalation of 3% isoflurane. Experiments were carried out in the same manner as in Test Example 1, and the compound [3] of the present invention was administered as a test compound at 0.1 mg/kg/min for 10 min, and the cardiac rate, left ventricular pressure, maximum +dP/dt, and maximum −dP/dt were measured for 20 heart beats every minute. The maximum +dP/dt or the maximum −dP/dt before administration was considered as 100%, and the value after administration was represented by a value (% representation) relative to the value before administration. Data are shown as mean and standard deviation. Using n=3 rats, experiments were carried out.
as §1, with “[4]” for “[3]”
Wistar male rats were bred for a week and then anesthetized by inhalation of 3% isoflurane. Experiments were carried out in the same manner as in Test Example 1, and the comparison comparative compound [A] was administered as a test compound at 0.1 mg/kg/min for 10 min, and the cardiac rate, left ventricular pressure, maximum +dP/dt, and maximum −dP/dt were measured for 20 heart beats every minute. The maximum +dP/dt or the maximum −dP/dt before administration was considered as 100%, and the value after administration was represented by a value (% representation) relative to the value before administration. Data are shown as mean and standard deviation. Using n=3 rats, experiments were carried out.
From the results of the tests carried out in Test Examples 1, 3, 4 and 5, the maximum +dP/dt (FIG. 7) and the maximum −dP/dt (FIG. 8) after administration of the compound [2], and compound [3], and compound [4] of the present invention as well as the comparative compound [A] were compared and examined.

[1] = tested on: rats with obsolete myocardial infarction; assay: Effect on myocardial contraction and relaxation in rats with obsolete myocardial infarction (coronary ligation, one month after operation); type: in vivo, Wistar male rats; details: 0.1 mg/kg/min for 10 min i.v., n=3
Text: Wistar male rats were anesthetized by inhalation of 3% isoflurane. The chest was opened at the left third intercostal space and the pericardial membrane was incised. The left anterior descending coronary artery was completely ligated with silk string (6.0; Ethicon) in the infarction group, and then the chest was immediately closed. Following this procedure, the inserted endotracheal tube was removed, and rats were awakened and then returned to a breeding room.
One month after operation, rats were anesthetized and endotracheally intubated, a pressure sensor-tipped catheter (2F Millar) was inserted into the left ventricle from the right common carotid artery, and a polyethylene tube (SP10) for injection of physiological saline or the compounds of the present invention was inserted from the right femoral vein in the same manner as in Test Example 1. After stabilizing hemodynamics for 10 minutes, the compound [2] of the present invention was administered from the polyethylene tube at 0.1 mg/kg/min for 10 min, and the cardiac rate, left ventricular pressure, maximum +dP/dt, and maximum −dP/dt were measured for 20 heart beats every minute. In the control group, only physiological saline, which is a solvent, was administered. It is noted that the injection rate of each solution was 16.6 μl per min. Using n=3 rats, experiments were carried out.
The maximum +dP/dt or the maximum −dP/dt before administration was considered as 100%, and the value after administration was represented by a value (% representation) relative to the value before administration. Data are shown as mean and standard deviation.

| Structure (SMILES) | maximum +dP/dt (index of contractile function) after vs before administration (normal rats; pre-administration = 100%, n=3) | maximum −dP/dt (index of relaxing function) after vs before administration (normal rats; pre-administration = 100%, n=3) | maximum +dP/dt after administration as compared to that by the comparative compound [A] (normal rats) | maximum −dP/dt after administration as compared to that by the comparative compound [A] (normal rats) | cardiac rate after administration relative to before administration (normal rats; pre-administration = 100%, n=3) | left ventricular pressure after administration relative to before administration (normal rats; pre-administration = 100%, n=3) | cardiac rate after vs before administration [1] | left ventricular pressure after vs before administration [1] | maximum +dP/dt after vs before administration ([1]; pre-administration = 100%) | maximum −dP/dt after vs before administration ([1]; pre-administration = 100%) |
| --- | --- | --- | --- | --- | --- | --- | --- | --- | --- | --- |
| OC(CN1CCN(C(c2ccccc2)c2ccccc2)CC1)CN1CCC(O)(c2ccc(Cl)cc2)CC1 (centres unmarked) [comparative compound [A], 1-[4-(diphenylmethyl)piperazinyl]-3-[4-(4-chlorophenyl)-4-hydroxy-piperidinyl]-2-propanol, reference compound] | tended to slightly increase after administration of the comparative compound [A], but significant changes were not observed | tended to slightly increase after administration of the comparative compound [A], but significant changes were not observed | – | – | – | – | – | – | – | – |
| OC1(c2ccc(Cl)cc2)CCN(CCCN2CCN(C(c3ccccc3)c3ccccc3)CC2)CC1 [compound [3], 1-[4-(diphenylmethyl)piperazinyl]-3-[4-(4-chlorophenyl)-4-hydroxy-piperidinyl]propane] | significantly increased | significantly increased | significantly raised | significantly raised | – | – | – | – | – | – |
| Cc1ccc(C2(O)CCN(CC(O)CN3CCN(C(c4ccccc4)c4ccccc4)CC3)CC2)cc1 (centres unmarked) [compound [4], 1-[4-(diphenylmethyl)piperazinyl]-3-[4-hydroxy-4-(4-methylphenyl)-piperidinyl]-2-propanol] | significantly increased | significantly increased | significantly raised | significantly raised | – | – | – | – | – | – |
| OC(CN1CCN(C(c2ccccc2)c2ccccc2)CC1)CN1CCC(O)(c2ccccc2)CC1 (centres unmarked) [compound [2], 1-[4-(diphenylmethyl)piperazinyl]-3-(4-hydroxy-4-phenyl-piperidinyl)-2-propanol] | significant increases | significant increases | significantly raised | significantly raised | not increased | significantly raised | significant changes in the cardiac rate were not observed | significantly increased | significantly increased | significantly increased |
